Common to all, as to format: cell-based
Assay [1] deals with T1, pERK1/2 (Thr202/Tyr204), NCI-1H441 (KRAS G12V) (Homo sapiens, UniProt P01116, G12V).
T1 construct: pERK1/2 HTRF read-out
The assay can be described thus: Assay of intracellular pERK1/2 (Thr202/Tyr204) phosphorylation in NCI-H441 cells (KRAS G12V). The method in brief: (§1)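 HTRF detection of Thr202/Tyr204-phosphorylated ERK1/2 (665/615 nm ratio) in lysates from cells treated 2 days with serially 3-fold diluted compound.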

Assay [2] deals with T2, pERK1/2 (Thr202/Tyr204), PANC-1 (KRAS G121D) (Homo sapiens, UniProt P01116, G12D).
T2 construct: pERK1/2 HTRF read-out
T2 sequence (P01116 1-188 isoform P01116-2 G12D): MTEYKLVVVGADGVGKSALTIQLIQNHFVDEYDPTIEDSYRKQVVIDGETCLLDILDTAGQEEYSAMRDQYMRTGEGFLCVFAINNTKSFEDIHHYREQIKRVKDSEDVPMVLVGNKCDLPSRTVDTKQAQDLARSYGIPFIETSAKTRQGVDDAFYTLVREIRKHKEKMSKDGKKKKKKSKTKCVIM
Briefly: Assay of intracellular pERK1/2 (Thr202/Tyr204) phosphorylation in PANC-1 cells (KRAS G12D). The method in brief:
as §1

Assay [3] addresses T3, pERK1/2 (Thr202/Tyr204), NCI-1H358 (KRAS G12C) (Homo sapiens, UniProt P01116, G12C).
T3 construct: pERK1/2 HTRF read-out
The assay can be described thus: Assay of intracellular pERK1/2 (Thr202/Tyr204) phosphorylation in NCI-H358 cells (KRAS G12C). The method in brief:
as §1

[4] abbreviates: read-out: NCI-H441 (KRAS G12V) IC50, pERK1/2, 2 days.
[5] abbreviates: read-out: PANC-1 (KRAS G12D) IC50, pERK1/2, 2 days.
Where [6] appears, read: read-out: NCI-H358 (KRAS G12C) IC50, pERK1/2, 2 days.
[7] abbreviates: pERK1/2, 2 days, read-out: NCI-H441 (KRAS G12V) IC50.
[8] abbreviates: pERK1/2, 2 days, read-out: PANC-1 (KRAS G12D) IC50.
The mark [9] stands for this setting: pERK1/2, 2 days, read-out: NCI-H358 (KRAS G12C) IC50.

The structures appear in SMILES notation. Read-outs that look alike come from different tables or passages of the source.

T1 sequence (P01116 1-188 isoform P01116-2 G12V): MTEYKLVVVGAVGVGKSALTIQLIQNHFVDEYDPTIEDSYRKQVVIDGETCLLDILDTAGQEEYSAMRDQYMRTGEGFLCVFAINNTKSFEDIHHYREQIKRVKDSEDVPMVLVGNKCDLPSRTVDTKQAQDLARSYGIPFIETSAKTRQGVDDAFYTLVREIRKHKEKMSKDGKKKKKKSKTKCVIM
T3 sequence (P01116 1-188 isoform P01116-2 G12C): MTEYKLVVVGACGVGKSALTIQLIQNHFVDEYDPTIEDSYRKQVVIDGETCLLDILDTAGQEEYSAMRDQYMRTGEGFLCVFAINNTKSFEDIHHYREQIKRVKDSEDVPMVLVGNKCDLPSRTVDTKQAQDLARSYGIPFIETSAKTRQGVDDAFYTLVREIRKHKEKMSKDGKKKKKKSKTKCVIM

As to `CCNC(=O)Oc1cc(-c2nc3c4c(nc(OC[C@@]56CCCN5C[C@H](F)C6)nc4c2F)N(C(C)c2cccnc2N)[C@@H](C)CO3)c2c(CC)c(F)ccc2c1` (stereo partly drawn) [Compound 294], the figures for the IC50 in assay [1] (setting [4]), in assay [2] (setting [5]) and in assay [3] (setting [6]) were 2 nM, 0.5 nM and 0.8 nM, respectively.
In the same order, the values of `CNC(=O)Oc1cc(Cl)c(C2CC2)c(-c2nc3c4c(nc(OC[C@@]56CCCN5C[C@H](F)C6)nc4c2F)N(C(C)c2cccnc2N)[C@@H](C)CO3)c1` (stereo partly drawn) [Compound 295] are 1 nM, 0.5 nM and 0.4 nM.
In the same order, the values of `CCc1c(F)ccc2cc(OC(=O)NC)cc(-c3nc4c5c(nc(OC[C@@]67CCCN6C[C@H](F)C7)nc5c3F)N(C(C)c3cccnc3N)[C@@H](C)CO4)c12` (stereo partly drawn) [Compound 296] are 2 nM, 0.3 nM and 0.5 nM.
For the molecule `CC(c1cccnc1N)N1c2nc(OC[C@@]34CCCN3C[C@H](F)C4)nc3c(F)c(-c4c(C(F)(F)F)ccc5[nH]ncc45)nc(c23)OC[C@@H]1C` (stereo partly drawn) [Compound 297], the IC50 in assay [1] (setting [7]) amounted to 1 nM; in assay [2] (setting [8]), 3 nM; in assay [3] (setting [9]), 0.5 nM.
On to `CCc1c(F)ccc2cc(O)cc(-c3nc4c5c(nc(OC[C@@]67CCCN6C[C@H](F)C7)nc5c3F)N(C(C)c3ccccc3N)[C@@H](C)CO4)c12` (stereo partly drawn) [Compound 298], for which the IC50 in assay [1] (setting [7]), in assay [2] (setting [8]) and in assay [3] (setting [9]) was > 100 nM each time.
`CCc1c(F)ccc2cc(O)cc(-c3nc4c5c(nc(OC[C@@]67CCCN6C[C@H](F)C7)nc5c3F)N(C(C)c3cccnc3NC(=O)[C@H](C)N)[C@@H](C)CO4)c12` (stereo partly drawn) [Compound 300]: the IC50 in assay [1] (setting [7]) came out at 2 nM; in assay [2] (setting [8]) it was 0.5 nM; in assay [3] (setting [9]) it was 0.6 nM.
In the case of `CCc1c(F)ccc2cc(OC(=O)N(C)C)cc(-c3nc4c5c(nc(OC[C@@]67CCCN6C[C@H](F)C7)nc5c3F)N(C(C)c3cccnc3N)[C@@H](C)CO4)c12` (stereo partly drawn) [Compound 301], the IC50 in assay [1] (setting [4]) turned out to be 72 nM; in assay [2] (setting [5]), 77 nM; in assay [3] (setting [6]), 25 nM.
In the case of `C/C=C/c1cc(N)cc(-c2nc3c4c(nc(OC[C@@]56CCCN5C[C@H](F)C6)nc4c2F)N(C(C)c2cccnc2N)[C@@H](C)CO3)c1C(F)(F)F` (stereo partly drawn) [Compound 302], the IC50 in assay [1] (setting [7]), in assay [2] (setting [8]) and in assay [3] (setting [9]) was > 100 nM in each case.
For the molecule `CCc1c(F)ccc2cc(OC(=O)N3CCC3)cc(-c3nc4c5c(nc(OC[C@@]67CCCN6C[C@H](F)C7)nc5c3F)N(C(C)c3cccnc3N)[C@@H](C)CO4)c12` (stereo partly drawn) [Compound 304], the IC50 in assay [1] (setting [4]) was 46 nM; in assay [2] (setting [5]) it was 55 nM; in assay [3] (setting [6]), 21 nM.
Consider `CC(c1cccnc1N)N1c2nc(OC[C@@]34CCCN3C[C@H](F)C4)nc3c(F)c(-c4cc(N)cc(Cl)c4C4CC4)nc(c23)OC[C@@H]1C` (stereo partly drawn) [Compound 305], for which the values for the IC50 in assay [1] (setting [7]), in assay [2] (setting [8]) and in assay [3] (setting [9]) were 0.6 nM, 0.3 nM and 0.3 nM, respectively.
Take `CC(c1cccnc1N)N1c2nc(OC[C@@]34CCCN3C[C@H](F)C4)nc3c(F)c(-c4cc(N)cc(Cl)c4)nc(c23)OC[C@@H]1C` (stereo partly drawn) [Compound 306]: the figures for the IC50 in assay [1] (setting [7]), in assay [2] (setting [8]) and in assay [3] (setting [9]) were 40 nM, 93 nM and 16 nM, respectively.
Take `CCc1c(F)ccc2cc(OC(=O)N3CCOCC3)cc(-c3nc4c5c(nc(OC[C@@]67CCCN6C[C@H](F)C7)nc5c3F)N(C(C)c3cccnc3N)[C@@H](C)CO4)c12` (stereo partly drawn) [Compound 307]: the IC50 in assay [1] (setting [4]) worked out at 23 nM; in assay [2] (setting [5]), 16 nM; in assay [3] (setting [6]), 13 nM.
In the same order, the values of `CC(c1cccn2ccnc12)N1c2nc(OC[C@@]34CCCN3C[C@H](F)C4)nc3c(F)c(-c4cc(O)cc5ccc(F)c(F)c45)nc(c23)OC[C@@H]1C` (stereo partly drawn) [Compound 310, (*)5,6-Difluoro-4-((9S)-4-fluoro-2-(((2R,7aS)-2-fluorotetrahydro-1H-pyrrolizin-7a(5H)-yl)methoxy)-10-(1-(imidazo[1,2-a]pyridin-8-yl)ethyl)-9-methyl-9,10-dihydro-8H-7-oxa-1,3,6,10-tetraazacyclohepta[de]naphthalen-5-yl)naphthalen-2-ol] are > 100 nM, > 100 nM and > 100 nM.
Turning to `Cc1nc(N)cc(-c2nc3c4c(nc(OC[C@@]56CCCN5C[C@H](F)C6)nc4c2F)N(C(C)c2cccnc2N)[C@@H](C)CO3)c1C(F)(F)F` (stereo partly drawn) [Compound 311], the IC50 in assay [1] (setting [7]) stood at 0.8 nM; in assay [2] (setting [8]) it was 6 nM; in assay [3] (setting [9]), 0.5 nM.
In the same order, the values of `Cc1cc2[nH]ncc2c(-c2nc3c4c(nc(OC[C@@]56CCCN5C[C@H](F)C6)nc4c2F)N(C(C)c2cccnc2N)[C@@H](C)CO3)c1C(F)(F)F` (stereo partly drawn) [Compound 312] are 0.4 nM, 0.3 nM and 0.3 nM.
The like results for `Cc1cc2[nH]ncc2c(-c2nc3c4c(nc(OC[C@@]56CCCN5C[C@H](F)C6)nc4c2F)N(C(C)c2cccnc2N)[C@@H](C)CO3)c1Cl` (stereo partly drawn) [Compound 313] were, in that order, 1 nM, 3 nM and 0.5 nM.
In the same order, the values of `Cc1cc2cn[nH]c2cc1-c1nc2c3c(nc(OC[C@@]45CCCN4C[C@H](F)C5)nc3c1F)N(C(C)c1cccnc1N)[C@@H](C)CO2` (stereo partly drawn) [Compound 314] are > 100 nM, > 100 nM and > 100 nM.
Regarding `CC(c1cccnc1N)N1c2nc(OC[C@@]34CCCN3C[C@H](F)C4)nc3c(F)c(-c4cc(O)cc(Cl)c4C(F)(F)F)nc(c23)OC[C@@H]1C` (stereo partly drawn) [Compound 315], the IC50 in assay [1] (setting [7]) was determined as 4 nM; in assay [2] (setting [8]), 6 nM; in assay [3] (setting [9]) it was 2 nM.
Turning to `COc1cc2cn[nH]c2cc1-c1nc2c3c(nc(OC[C@@]45CCCN4C[C@H](F)C5)nc3c1F)N(C(C)c1cccnc1N)[C@@H](C)CO2` (stereo partly drawn) [Compound 316], the IC50 in assay [1] (setting [7]), in assay [2] (setting [8]) and in assay [3] (setting [9]) was > 100 nM throughout.
On to `Cc1cc2[nH]ncc2c(-c2nc3c4c(nc(OC[C@@]56CCCN5C[C@H](F)C6)nc4c2F)N(C(C)c2cccnc2N)[C@@H](C)CO3)c1C1CC1` (stereo partly drawn) [Compound 317], for which the IC50 is 0.8 nM in assay [1] (setting [7]), 0.3 nM in assay [2] (setting [8]) and 0.4 nM in assay [3] (setting [9]).
In the same order, the values of `Cc1ccc2[nH]ncc2c1-c1nc2c3c(nc(OC[C@@]45CCCN4C[C@H](F)C5)nc3c1F)N(C(C)c1cccnc1N)[C@@H](C)CO2` (stereo partly drawn) [Compound 318] are 7 nM, 37 nM and 1 nM.
The like results for `Cc1ccc2[nH]nc(C)c2c1-c1nc2c3c(nc(OC[C@@]45CCCN4C[C@H](F)C5)nc3c1F)N(C(C)c1cccnc1N)[C@@H](C)CO2` (stereo partly drawn) [Compound 319] were, in that order, 1 nM, 10 nM and 0.9 nM.
In the same order, the values of `CC(c1cccnc1N)N1c2nc(OC[C@@]34CCCN3C[C@H](F)C4)nc3c(F)c(-c4ccc(F)c5sc(N)nc45)nc(c23)OC[C@@H]1C` (stereo partly drawn) [Compound 320] are 4 nM, 28 nM and 0.9 nM.
As for `CC(c1cccnc1N)N1c2nc(OC[C@@]34CCCN3C[C@H](F)C4)nc3c(F)c(-c4c(Cl)ccc5[nH]ncc45)nc(c23)OC[C@@H]1C` (stereo partly drawn) [Compound 321], the IC50 in assay [1] (setting [7]) is 7 nM; in assay [2] (setting [8]) it was 36 nM; in assay [3] (setting [9]), 1 nM.

Values taken from US20260356851A1, “TRICYCLIC COMPOUNDS AND USES THEREOF” (HUTCHMED LIMITED, priority 2023, published 2026).
